Values quoted from earlier work, collected in patent US20100008866A1, “CIS-CYCLOHEXYL SUBSTITUTED PYRIMIDINONE DERIVATIVES” (Neurogen Corporation, priority 2006, published 2010).

Molecular target: VR (Homo sapiens, UniProt Q8NER1)
Conditions: typically; no more than moderate affinity; read-out: Ki value (binds to VR)

VR, sequence (Q8NER1 whole entry): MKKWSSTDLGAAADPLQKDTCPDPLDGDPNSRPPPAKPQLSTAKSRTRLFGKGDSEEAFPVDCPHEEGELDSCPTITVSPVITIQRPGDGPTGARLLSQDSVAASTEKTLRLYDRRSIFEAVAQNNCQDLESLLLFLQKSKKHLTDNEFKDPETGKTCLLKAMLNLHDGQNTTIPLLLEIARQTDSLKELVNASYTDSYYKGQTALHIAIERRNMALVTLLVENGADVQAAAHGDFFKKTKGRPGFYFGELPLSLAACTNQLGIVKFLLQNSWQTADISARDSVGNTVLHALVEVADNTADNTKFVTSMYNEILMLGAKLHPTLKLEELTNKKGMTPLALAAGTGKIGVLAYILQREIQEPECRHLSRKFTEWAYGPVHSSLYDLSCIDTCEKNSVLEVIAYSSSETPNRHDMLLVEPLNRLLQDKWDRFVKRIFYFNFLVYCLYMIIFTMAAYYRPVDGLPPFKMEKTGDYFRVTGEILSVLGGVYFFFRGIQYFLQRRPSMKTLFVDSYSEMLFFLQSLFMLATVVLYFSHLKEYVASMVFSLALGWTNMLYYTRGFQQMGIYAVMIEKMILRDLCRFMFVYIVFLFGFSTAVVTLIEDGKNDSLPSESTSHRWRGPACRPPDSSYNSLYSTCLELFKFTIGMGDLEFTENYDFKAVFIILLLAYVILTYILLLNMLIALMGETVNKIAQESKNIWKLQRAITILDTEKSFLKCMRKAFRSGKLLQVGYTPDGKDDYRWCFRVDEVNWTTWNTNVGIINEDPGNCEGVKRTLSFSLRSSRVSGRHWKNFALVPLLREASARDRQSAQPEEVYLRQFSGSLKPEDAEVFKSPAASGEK

- Ki: ≥ 140 µM
Compound: Cl.Cl.Cl.Cl.Cl.Cl.N.N.N.N.N.N.N.N.N.N.N.N.N.N.[O-2].[O-2].[Ru+3].[Ru+3].[Ru+4] [ruthenium red]
